We go through 45 compounds from the Deep4Chem optical property database.

Molecules are shown by their SMILES.

A short description of the data set: solvent given as SMILES.

Turning to `CCCN1C(=O)c2c3c(c4c(c2C1=O)CCc1cc(-c2ccc(N(C)C)cc2)c(OC)cc1-4)-c1cc(OC)c(-c2ccc(N(C)C)cc2)cc1CC3`, the emission maximum stood at 511 nm (in C1CCCCC1); 602 nm (in C1CCOC1); 598 nm (in CCOC(C)=O); 548 nm (in Cc1ccccc1); 613 nm (in ClCCl).
On to `O=P(c1ccccc1)(c1ccccc1)n1c2ccccc2c2ccccc21`, for which the emission maximum (in C1CCOC1) is reported as 360 nm, the emission maximum (in CC(C)=O) amounted to 406 nm, the emission maximum (in Cc1ccccc1) is 372 nm and the emission maximum (in ClCCl) came out at 355 nm.
Take `CC(C)(C)c1ccc(-c2cc3c(-c4ccc(C(C)(C)C)cc4)c4cccc5c(-c6ccc(C(C)(C)C)cc6)cc6c(-c7ccc(C(C)(C)C)cc7)c7cccc2c7c3c6c54)cc1`: the emission maximum reads like this: (in C1CCCCC1) 463 nm; (in CC#N) 464 nm; (in CO) 462 nm; (in Cc1ccccc1) 467 nm; (in ClCCl) 467 nm.
In the case of `N#Cc1ccc(-c2cnc3cccc(-c4ccccc4)n23)cc1`, under “in ClCCl”, the emission maximum was determined as 457 nm.
Consider `CN(C)c1ccc(-c2c(/C=C3/C=Cc4ccccc4N3Cc3ccccc3)c(=O)c2=O)cc1`, for which the emission maximum (in C1CCCCC1) was determined as 427 nm, the emission maximum (in Cc1ccccc1) turned out to be 435 nm and the emission maximum (in ClCCl) worked out at 586 nm.
With `OC1(c2ccc(-c3cccs3)s2)CCC1`, the emission maximum is, setting by setting: (in C1CCOC1) 470 nm; (in CC#N) 460 nm; (in CCCCCC) 465 nm; (in CCO) 415 nm; (in OCCOCCO) 465 nm; (in c1ccncc1) 468 nm.
Where the note is “in ClCCl”, `O=c1c2cccc3cccc(c32)c2nc3ccccc3n12` came in with an emission maximum of 499 nm.
As to `c1ccc2c(c1)-c1ccccc1C21c2ccccc2-c2oc3c(c21)C1(c2ccccc2-c2ccccc21)c1ccccc1-3`, the emission maximum (in C1CCOC1) came to 393 nm.
For the compound `CN(C)c1ccc(C2=Nc3scc[n+]3[B-](F)(F)O2)cc1`, the emission maximum runs as follows: (in C1CCOC1) 454 nm; (in CC#N) 469 nm; (in Cc1ccccc1) 439 nm; (in ClCCl) 453 nm.
As to `O=C1c2cc(F)ccc2-c2cnccc21`, the emission maximum is on record as 540.43 nm (in CC#N) and 486.26 nm (in CCCCCC).
Turning to `CCCCn1c2ccccc2c2ccc(C#Cc3ccc4ccc5cccc6ccc3c4c56)cc21`, the emission maximum (in ClCCl) came to 411 nm.
With `Cc1cccc(C)c1Nc1ccc(/C=C/c2cccnc2)cc1`, the emission maximum is 450 nm (in CC#N) and 383 nm (in CCCCCC).
Regarding `c1ccc(-c2cc3cc4ccccc4cc3p2-c2ccccc2)cc1` (stereo not drawn), the emission maximum (in ClCCl) came to 429 nm.
`CN(C)c1ccc(-c2cc(-c3ccccc3)nn2C)cc1`: under “in ClCCl”, the emission maximum turned out to be 365 nm.
On the same count and under the same terms, for `COc1ccc(-c2cc3c(ccc4sc5ccc6sc(-c7ccc(C(C)=O)cc7)cc6c5c43)s2)cc1` the value was 477 nm; for `Cc1ccc2nc3cc4c(cc3c(-c3ccccc3)c2c1)[Si](C)(C)O[Si](C)(C)O[Si]4(C)C`, 502 nm.
With `Cc1ccccc1-c1c2ccc(=[N+]3CCOCC3)cc-2oc2cc(N3CCOCC3)ccc12`, the emission maximum amounted to 582 nm (in CCO) and 575 nm (in ClCCl).
`CCCCCCCCC1(CCCCCCCC)c2cc3c(cc2-c2sc(-c4ccc(/C=C5\SC(SCC)=NC5=O)c5nsnc45)cc21)C(CCCCCCCC)(CCCCCCCC)c1cc(-c2ccc(/C=C4\SC(SCC)=NC4=O)c4nsnc24)sc1-3` registered an emission maximum (in ClC(Cl)Cl) of 718 nm.
`COc1ccc(-c2ccc(-c3ccccc3)cc2)cc1`: the emission maximum (in C1CCCCC1) came to 353 nm.
Under “in ClCCl”, `O=P1(c2ccccc2)C(c2ccccc2)=Cc2cc3ccccc3cc21` (stereo not drawn) came in with an emission maximum of 428 nm.
As for `CC1(C)c2ccccc2N(c2ccc3c(c2)Oc2ccccc2P3(=O)c2ccccc2)c2ccccc21` (stereo not drawn), the emission maximum by setting is: (in Cc1ccccc1) 433 nm; (in O=P(c1ccccc1)(c1ccccc1)c1ccccc1Oc1ccccc1P(=O)(c1ccccc1)c1ccccc1) 434 nm.
Turning to `CC(C)(C)c1ccc(-c2cc3c4c(c2)CCc2cc(-c5ccc(C(C)(C)C)cc5)cc(c2-4)CC3)cc1`, the emission maximum turned out to be 382.09 nm (in C1CCCCC1); 384.87 nm (in C1CCOC1); 383.16 nm (in CC#N); 381.02 nm (in CCCCCC); 382.73 nm (in CCO); 386.79 nm (in CN(C)C=O). For the same compound, the emission maximum was found to be 381.87 nm (in CO), 387.93 nm (in ClC(Cl)Cl) and 386.36 nm (in ClCCl).
With `Cn1c(=O)c(-c2ccccc2)nc2ccccc21`, the emission maximum (in c1ccccc1) is on record as 424 nm.
Compound `c1ccc2c(c1)OB1Oc3ccccc3-c3c1c-2c1c2c3-c3ccccc3OB2Oc2ccccc2-1` came in with an emission maximum (in ClCCl) of 430 nm.
`CC(C)Nc1cc2sc3cc(NC(C)C)c(F)cc3c(=O)c2cc1F` returned an emission maximum (in CCO) of 446 nm.
In the case of `Cc1cc(O)c(C(C)C)cc1/N=C/c1ccc(O)cc1`, the emission maximum reads like this: (in C1CCCCC1) 400 nm; (in C1CCOC1) 406 nm; (in C1COCCO1) 405 nm; (in CC#N) 411 nm; (in CC(C)(C)O) 410 nm; (in CC(C)O) 412 nm. Further, the emission maximum (in CCCCCC) is listed as 399 nm; the emission maximum (in CCCCO) came out at 414 nm; the emission maximum (in CCO) is reported as 414 nm; the emission maximum (in CCOC(C)=O) was 405 nm; the emission maximum (in CN(C)C=O) is given as 409 nm; the emission maximum (in CO) is 416 nm. In addition, the emission maximum (in CS(C)=O) is reported as 415 nm; the emission maximum (in ClC(Cl)Cl) is on record as 401 nm; the emission maximum (in ClCCl) came to 412 nm; the emission maximum (in O) stood at 452 nm; the emission maximum (in OCCO) is recorded as 421 nm.
Regarding `Cc1ccc(S(=O)(=O)Nc2cc(-c3ccc(N(C)C)cc3)sc2/C=C/c2ccccc2)cc1`, the emission maximum (in CC#N) is 604 nm.
As to `CN(C)CCN(Cc1c2ccccc2cc2ccccc12)c1ccc([N+](=O)[O-])cc1[N+](=O)[O-]`, the emission maximum by setting is: (in C1CCCCC1) 391 nm; (in C1CCOC1) 394 nm; (in CC#N) 394 nm; (in CC(C)=O) 393 nm; (in CCO) 394 nm; (in CN(C)C=O) 396 nm. Also, the emission maximum is, setting by setting: (in CO) 392 nm; (in CS(C)=O) 398 nm; (in ClC(Cl)Cl) 394 nm; (in ClCCl) 393 nm.
The compound `CC(C)(C)NC(=O)c1ccc(-c2cc3ccccc3s2)c2ccc3c4ccccc4c4ccccc4c3c12` returned an emission maximum (in ClCCl) of 441 nm.
As for `C(#Cc1cccs1)C(C#Cc1cccs1)=Cc1ccc(C=C(C#Cc2cccs2)C#Cc2cccs2)s1`, the emission maximum (in ClC(Cl)Cl) stood at 550 nm.
The compound `COc1ccc2c(c1)c1cc(OC)ccc1c1c2c2c(C(=O)NC(C)(C)C)ccc(C(=O)NC(C)(C)C)c2c2c3ccc(OC)cc3c3cc(OC)ccc3c21` yielded an emission maximum (in ClCCl) of 498 nm.
As for `CC[Si](CC)(CC)c1cc2ccc3cccc4ccc(c1C(=O)NC(C)(C)C)c2c34`, the emission maximum (in ClC(Cl)Cl) was 383 nm.
As for `Cc1cc(C)c(B(c2c(C)cc(C)cc2C)c2cc3ccc4ccccc4c3c3c2cc(N(C)C)c2ccccc23)c(C)c1`, the emission maximum is 554 nm (in C1CCCCC1); 601 nm (in C1CCOC1); 613 nm (in CC#N); 585 nm (in ClC(Cl)Cl); 582 nm (in c1ccccc1).
Take `CCCSc1ccc2n1[B-](F)(F)[N+]1=C(SC#N)C=CC1=C2c1ccccc1`: the emission maximum amounted to 567 nm (in CC#N); 568 nm (in CCCCCC); 567 nm (in CCOC(C)=O); 563 nm (in CO); 569 nm (in ClCCl).
Take `COc1ccccc1-c1c2ccc(=[N+]3CCCCC3)cc-2oc2cc(N3CCCCC3)ccc12`: the emission maximum amounted to 586 nm (in CCO) and 585 nm (in ClCCl).
`Cc1c(C)c(-c2cccnc2)c(C)c(C)c1B(c1c(C)c(C)c(-c2cccnc2)c(C)c1C)c1c(C)c(C)c(-c2cccnc2)c(C)c1C` showed an emission maximum (in ClCCl) of 403 nm.
The same measure, in the same setting: the figure for `CC(C)(C)NC(=O)c1ccc(-c2ccc(N3c4ccccc4Oc4ccccc43)cc2)c2ccc3c4ccc(F)cc4c4cc(F)ccc4c3c12` is 573 nm.
Take `COC(=O)c1ccc(/C=C2\C=C(c3ccc(OC)c(OC)c3)OC2=O)cc1`: the emission maximum (in C1COCCO1) turned out to be 522 nm.
Compound `Cc1ccc(-c2ccc(/C=C/c3ccc(Cl)cc3)cn2)nc1` showed an emission maximum (in CC#N) of 392 nm.
For `CCN(CC)c1ccc2cc(-c3ccc(C(F)(F)F)cc3)oc(=O)c2c1`, the emission maximum reads like this: (in CC(C)=O) 454 nm; (in CCCCCC) 418 nm; (in CCCCO) 468 nm; (in CCCO) 470 nm; (in CCO) 471 nm; (in CCOC(C)=O) 443 nm. Further, the emission maximum is, setting by setting: (in CN(C)C=O) 462 nm; (in CO) 475 nm; (in ClC(Cl)Cl) 450 nm.
In the case of `O=C(O)c1ccccc1Nc1cccc(C(F)(F)F)c1`, the emission maximum (in C1CCCCC1) is 406 nm; the emission maximum (in C1CCOC1) came to 408 nm; the emission maximum (in C1COCCO1) is on record as 410 nm; the emission maximum (in CC#N) is 426 nm; the emission maximum (in CCOC(C)=O) worked out at 410 nm; the emission maximum (in CN(C)C=O) was found to be 425 nm. The emission maximum is 428 nm (in CO) and 426 nm (in ClC(Cl)Cl).
For the setting “in ClCCl”, `COc1ccc(-c2cc3c(ccc4sc5ccc6sc(-c7ccc(C#N)cc7)cc6c5c43)s2)cc1` returned an emission maximum of 469 nm.
`C1=CC2=Nc3cccc[n+]3CN2C=C1` had an emission maximum (in CO) of 448 nm.
On to `c1ccc(-p2c(-c3cccs3)cc3ccccc32)cc1` (stereo not drawn), for which the emission maximum (in C1CCOC1) was 417 nm.
`CC[n+]1c(C=C2C(=O)C(C=C3N(C)c4ccc(Cl)cc4C3(C)C)=C2[O-])sc2ccccc21`: the emission maximum by setting is: (in CO) 653 nm; (in ClC(Cl)Cl) 664 nm.
